Data as given in ChEMBL document CHEMBL1151110, “Biosynthesis of staurosporine, 1. 1H- and 13C-NMR assignments” (J Nat Prod, 1988).

Test: Acute toxicity in ip dosed mouse
Type: organism-based
Conditions: in vivo

CN[C@@H]1C[C@H]2O[C@@](C)([C@@H]1OC)n1c3ccccc3c3c4c(c5c6ccccc6n2c5c31)C(=O)NC4.Cl
LD50: 6.6 mg/kg
